Earlier results as cited in patent publication US20070042040A1, “Methods and compositions using gonadotropin hormone releasing hormone” (priority 2003, published 2007).

Details: mouse models

Compound: C[C@]12CC[C@H]3[C@@H](CCC4=C[C@H](O)CC[C@@H]43)[C@@H]1CC[C@@H]2O [(3α,17β)-estr-4-ene-3,17-diol]
- effect on bone loss: reverse bone loss
